Assay [1] concerns Human lung cancer cell line (A-549). The assay is described as follows: Antiproliferative assay (sulforhodamine B, 72 h) against A549. In kind it is cell-based. The note with it: A549 cells, mean ± SD. As to the method:
(§1) Anti-proliferative assays in vitro were performed in the same manner as described in the literature. The cell lines of human leukemia MV4-11, lung A549, and colon HCT 116 cancer were chosen as representing various tissue origins and BALB/3T3 normal murine fibroblasts to assess the cytotoxicity of tested compounds towards normal cells. The IC50 parameter (half-maximum inhibitory concentration) was calculated based on sulforhodamine B (HCT-116, A549, BALB/3T3) or MTT (MV4-11) assay results after 72 h of exposure. Each compound in a given concentration was tested in triplicate in each experiment, which was repeated three to five times.

Assay [2] concerns human leukemia MV4-11 cell line. As to the kind of experiment: Antiproliferative assay (MTT, 72 h) against human leukemia MV4-11 cell line. In kind it is cell-based. To be noted: MV4-11 cells, 72 h exposure, 50% growth inhibition, mean ± SD. As to the method:
as §1

Assay [3] relates to normal murine embryonic fibroblast cell line (BALB/3T3). The assay is described as follows: Antiproliferative assay (sulforhodamine B, 72 h) against normal murine fibroblasts BALB/3T3. In kind it is cell-based, mouse. To be noted: BALB/3T3 normal murine fibroblasts, mean ± SD. As to the method: as §1
Assay [4] has as its system human colon adenocarcinoma cell line (HCT 116). As to the kind of experiment: Antiproliferative assay (sulforhodamine B, 72 h) against HCT 116. In kind it is cell-based. To be noted: HCT 116 cells, mean ± SD. Here is the method: as §1
A further assay concerns salmon sperm DNA. The assay is described as follows: DNA binding study by UV-Vis absorption spectroscopy. As to the method:
The DNA binding studies of compound 2d were performed using UV-Vis absorption spectroscopy with salmon sperm DNA in a phosphate buffer of pH 7.0 at 20 °C. […] The maximum absorption shifted from 256 nm to 289 nm. This illustrated that the mode of 2d binding to DNA was intercalation. The binding constant of 2d to DNA was calculated as 4.12 × 10^5 L·mol^−1, according to a double-reciprocal equation.
Figure 3 (a) UV-Vis absorption spectra of compound 2d at 20 °C. C(2d) = 50 μmol/L, C(DNA) = 0.0, 0.025, 0.05, 0.075, 0.1, 0.125, 0.15, 0.175, 0.2, 0.225, 0.25 μmol/L for curves 1–11 in phosphate buffer solution (pH 7.0) (b) Plot of 1/ΔA vs. 1/[DNA] for 2d-DNA.
The commercially obtained reagents (TCI, Tokyo, Japan) were used directly without further purification. The ^1H-NMR and ^13C-NMR spectra were taken on Varian INOVA-600, Varian INOVA-400, Varian INOVA-300 (Palo Alto, CA, USA), or Bruker 400 spectrometers (Billerica, MA, USA), using CDCl3 or DMSO-d6 as a solvent and tetramethylsilane (TMS) as the internal standard. The NMR spectra of the compounds are in Supplementary Materials. […] The melting points were determined on a RFS-10 hot stage microscope (J-Science, Kyoto, Japan). The UV spectra were recorded with a U-2910 spectrophotometer (Hitachi, Tokyo, Japan) in a 1 cm path length quartz cuvette at an indicated wavelength, and the sample was dissolved in phosphate buffer with 2.5% DMSO.

In assay [5] the test system is human breast cancer MDA-MB-453 cell line. Also on record: method as in doi:10.1007/s00044-016-1508-z. To be noted: MDA-MB-453 breast cancer cell line; cited from earlier work.
The test system of assay [6] is human (HL-60) leukaemia cell line. Details: method as in PMID 11099695. The note with it: cited from earlier work.

Structures can show the parent of a compound that is named as a salt.

As to `N.N.[Cl][Pt][Cl]` [Cisplatin, reference compound], the IC50 in assay [1] amounted to 9.87 ± 2.4 µM; in assay [2], 2.82 ± 0.45 µM; in assay [3], 8.7 ± 0.097 µM; in assay [4] it was 8.5 ± 0.54 µM.

Consider `Cn1c2nc3ccccc3c-2c(Cl)c2ccccc21` [Compound 1a], for which, in assay [2] (Homo sapiens), the IC50 turned out to be 1.31 ± 0.262 µM.

For `Cn1c2nc3ccccc3c-2c(NCC(C)(C)CN)c2ccccc21` [Compound 2a, N-(3-Amino-2,2-dimethylpropyl)-5-methyl-5H-indolo[2,3-b]quinolin-11-amine], the concentration for half-maximal inhibition (IC50) in assay [1] (Homo sapiens, A549, 72 h) was 1.51 ± 0.198 µM; in assay [2] (Homo sapiens), 0.15 ± 0.06 µM; in assay [3] (Mus musculus, BALB/3T3, 72 h), 4.79 ± 2.02 µM; in assay [4] (Homo sapiens) it was 1.26 ± 0.361 µM.

The compound `Cc1ccc2c(c1)c(NCC(C)(C)CN)c1c3ccccc3nc-1n2C` [Compound 2b, N-(3-Amino-2,2-dimethylpropyl)-2,5-dimethyl-5H-indolo[2,3-b]quinolin-11-amine] displayed an IC50 in assay [2] (Homo sapiens) of 0.288 ± 0.075 µM.

For the compound `Cn1c2nc3ccccc3c-2c(NCC(C)(C)CN)c2cc(Cl)ccc21` [Compound 2c, N-(3-Amino-2,2-dimethylpropyl)-2-chloro-5-methyl-5H-indolo[2,3-b]quinolin-11-amine], the concentration for half-maximal inhibition (IC50) stood at 1.46 ± 0.168 µM in assay [1] (Homo sapiens, A549, 72 h); 0.119 ± 0.043 µM in assay [2] (Homo sapiens); 9.13 ± 0.844 µM in assay [3] (Mus musculus, BALB/3T3, 72 h); 1.37 ± 0.351 µM in assay [4] (Homo sapiens).

For `Cn1c2nc3ccccc3c-2c(NCC(C)(C)CN)c2cc(Br)ccc21` [Compound 2d, N-(3-Amino-2,2-dimethylpropyl)-2-bromo-5-methyl-5H-indolo[2,3-b]quinolin-11-amine], the IC50 in assay [2] (Homo sapiens) stood at 0.308 ± 0.102 µM. For the same compound, in the assay with salmon sperm DNA (UV-Vis, red shift 256 nm to 289 nm and hypochromic effect, pH 7.0, 20 °C), the “mode of binding to DNA” value is “intercalation”. Moreover, in the assay with salmon sperm DNA (salmon sperm DNA, phosphate buffer pH 7.0, 20 °C, double-reciprocal equation), the “binding constant to DNA” value turned out to be 412000 L/mol.

For `Cn1c2nc3ccccc3c-2c(NCC(C)(C)N)c2ccccc21` [Compound 2e, N-(2-Amino-2-methylpropyl)-5-methyl-5H-indolo[2,3-b]quinolin-11-amine], the IC50 in assay [2] (Homo sapiens) was 0.392 ± 0.188 µM.

For `Cc1ccc2c(c1)c(NCC(C)(C)N)c1c3ccccc3nc-1n2C` [Compound 2f, N-(2-Amino-2-methylpropyl)-2,5-dimethyl-5H-indolo[2,3-b]quinolin-11-amine], the IC50 in assay [1] (Homo sapiens, A549, 72 h) is 1.79 ± 0.27 µM; in assay [2] (Homo sapiens) it was 0.105 ± 0.027 µM; in assay [3] (Mus musculus, BALB/3T3, 72 h) it was 10.6 ± 0.33 µM; in assay [4] (Homo sapiens), 2.37 ± 0.481 µM.

In the case of `Cn1c2nc3ccccc3c-2c(NCC(C)(C)N)c2cc(Cl)ccc21` [Compound 2g, N-(2-Amino-2-methylpropyl)-2-chloro-5-methyl-5H-indolo[2,3-b]quinolin-11-amine], in assay [2] (Homo sapiens), half-maximal inhibition (IC50) was put at 0.453 ± 0.209 µM.

As to `Cn1c2nc3ccccc3c-2c(NCC(O)CN)c2cc(Cl)ccc21` (centres unmarked) [Compound 2h, 1-Amino-3-(2-chloro-5-methyl-5H-indolo[2,3-b]quinolin-11-ylamino)propan-2-ol], the IC50 in assay [1] (Homo sapiens, A549, 72 h) worked out at 0.197 ± 0.028 µM; in assay [2] (Homo sapiens) it was 0.042 ± 0.014 µM; in assay [4] (Homo sapiens), 0.138 ± 0.05 µM.

Consider `Cn1c2nc3ccccc3c-2c(NCC(O)CN)c2cc(Br)ccc21` (centres unmarked) [Compound 2k, 1-Amino-3-(2-bromo-5-methyl-5H-indolo[2,3-b]quinolin-11-ylamino)propan-2-ol], for which the IC50 in assay [1] amounted to 0.19 ± 0.027 µM; in assay [1] (Homo sapiens, A549, 72 h), 0.199 µM; in assay [2] (Homo sapiens), 0.057 ± 0.015 µM; in assay [4] (Homo sapiens), 0.117 ± 0.055 µM.

Regarding `CC(N)CNc1c2c3ccccc3nc-2n(C)c2ccc(Cl)cc12` (centres unmarked) [Compound 2m, N-(2-Aminopropyl)-2-chloro-5-methyl-5H-indolo[2,3-b]quinolin-11-amine], the IC50 in assay [1] (Homo sapiens, A549, 72 h) turned out to be 1.27 ± 0.118 µM; in assay [2] (Homo sapiens), 0.103 ± 0.014 µM; in assay [3] (Mus musculus, BALB/3T3, 72 h), 1.02 ± 0.017 µM; in assay [4] (Homo sapiens) it was 1.2 ± 0.283 µM.

As to `Cn1c2nc3ccccc3c-2c(NCC(C)(C)N)c2cc(Br)ccc21` [Compound 2n, N-(2-Amino-2-methylpropyl)-2-bromo-5-methyl-5H-indolo[2,3-b]quinolin-11-amine], the IC50 is 0.988 ± 0.164 µM in assay [1] (Homo sapiens, A549, 72 h); 0.078 ± 0.02 µM in assay [2] (Homo sapiens); 0.939 ± 0.018 µM in assay [3] (Mus musculus, BALB/3T3, 72 h); 0.842 ± 0.367 µM in assay [4] (Homo sapiens).

As to `Cn1c2nc3ccccc3c-2c(NCC(C)(C)CNC(=O)Nc2ccccc2)c2ccccc21` [Compound 3a, 1-(2,2-Dimethyl-3-(5-methyl-5H-indolo[2,3-b]quinolin-11-ylamino)propyl)-3-phenylurea], in assay [2] (Homo sapiens), half-maximal inhibition (IC50) required 0.549 ± 0.108 µM.

On to `Cc1ccc2c(c1)c(NCC(C)(C)CNC(=O)Nc1ccccc1)c1c3ccccc3nc-1n2C` [Compound 3b, 1-(3-(2,5-Dimethyl-5H-indolo[2,3-b]quinolin-11-ylamino)-2,2-dimethylpropyl)-3-phenylurea], for which the IC50 in assay [2] (Homo sapiens) is 0.427 ± 0.092 µM.

In turn, `Cn1c2nc3ccccc3c-2c(NCC(C)(C)CNC(=O)Nc2ccccc2)c2cc(Cl)ccc21` [Compound 3c, 1-(3-(2-Chloro-5-methyl-5H-indolo[2,3-b]quinolin-11-ylamino)-2,2-dimethylpropyl)-3-phenylurea] yielded an IC50 in assay [2] (Homo sapiens) of 0.79 ± 0.302 µM.

Turning to `Cn1c2nc3ccccc3c-2c(NCC(C)(C)NC(=O)Nc2ccccc2)c2ccccc21` [Compound 3d, 1-(2-Methyl-1-(5-methyl-5H-indolo[2,3-b]quinolin-11-ylamino)propan-2-yl)-3-phenylurea], it took 0.464 ± 0.141 µM to reach half-maximal inhibition in assay [2] (Homo sapiens) (IC50).

`Cn1c2nc3ccccc3c-2c(NCC(C)(C)CNC(=S)Nc2ccccc2)c2ccccc21` [Compound 4a, 1-(2,2-Dimethyl-3-(5-methyl-5H-indolo[2,3-b]quinolin-11-ylamino)propyl)-3phenylthiourea] gave an IC50 in assay [2] (Homo sapiens) of 0.68 ± 0.215 µM.

In turn, `Cn1c2nc3ccccc3c-2c(NCC(C)(C)NC(=S)Nc2ccccc2)c2cc(Cl)ccc21` [Compound 4b, 1-(1-(2-Chloro-5-methyl-5H-indolo[2,3-b]quinolin-11-ylamino)-2-methylpropan-2-yl)-3-phenylthiourea] had an IC50 in assay [2] (Homo sapiens) of 2.33 ± 1.01 µM.

As to `COc1cccc2c1C(=O)c1c(O)c3c(c(O)c1C2=O)C[C@@](O)(C(=O)CO)C[C@@H]3O[C@H]1C[C@H](N)[C@H](O)[C@H](C)O1` [Doxorubicin HCl, reference compound], the IC50 in assay [1] (Homo sapiens, A549, 72 h) is 0.329 ± 0.097 µM; in assay [2] (Homo sapiens) it was 0.006 ± 0.002 µM; in assay [3] (Mus musculus, BALB/3T3, 72 h), 1.08 ± 0.033 µM; in assay [4] (Homo sapiens), 0.39 ± 0.098 µM.

On to `Cn1c2nc3ccccc3c-2cc2ccccc21` [neocryptolepine (II), neocryptolepine], for which the values for the IC50 in assay [5] and in assay [6] were 7.48 ± 4.42 µM and 12.7 ± 1.3 µM, respectively.

As usually defined, the IC50 is the concentration that inhibits the measured activity by half.

The record behind these values is publication PMC6150407, “Synthesis and In Vitro Antiproliferative Activity of 11-Substituted Neocryptolepines with a Branched ω-Aminoalkylamino Chain” (Molecules : A Journal of Synthetic Chemistry and Natural …, 2017).
